Assay results published in the kinase profiling compilation of Christmann-Franck et al. (2016).

Assays:
Assay in all cases: KINOMEscan competition binding
Settings in all cases: compound 10.0 µM
[1] = molecular target: STK38 (human) (UniProt Q15208)
[2] = molecular target: CSNK1A1L (human) (UniProt Q8N752)
[3] = molecular target: CAMK1G (human) (UniProt Q96NX5)
[4] = molecular target: CDK7 (human) (UniProt P50613)
[5] = molecular target: STK3 (human) (UniProt Q13188)
[6] = molecular target: NEK5 (human) (UniProt Q6P3R8)
[7] = test system: KIT (human), P10721 [L576P]
[8] = molecular target: DMPK (human) (UniProt Q09013)
[9] = molecular target: TYRO3 (human) (UniProt Q06418)
[10] = molecular target: PIK3C2B (human) (UniProt O00750)
[11] = molecular target: PIM3 (human) (UniProt Q86V86)
[12] = test system: FLT3 (human), P36888 [D835H]
[13] = molecular target: TAOK1 (human) (UniProt Q7L7X3)
[14] = molecular target: PDPK1 (human) (UniProt O15530)
[15] = molecular target: PRKACA (human) (UniProt P17612)
[16] = molecular target: PIP5K1A (human) (UniProt Q99755)
[17] = molecular target: NUAK1 (human) (UniProt O60285)
[18] = molecular target: TNK1 (human) (UniProt Q13470)
[19] = molecular target: FLT4 (human) (UniProt P35916)
[20] = molecular target: PDGFRB (human) (UniProt P09619)
[21] = molecular target: PIP4K2C (human) (UniProt Q8TBX8)
[22] = molecular target: FGFR1 (human) (UniProt P11362)
[23] = molecular target: MARK2 (human) (UniProt Q7KZI7)
[24] = molecular target: TNNI3K (human) (UniProt Q59H18)
[25] = molecular target: CDK17 (human) (UniProt Q00537)
[26] = molecular target: MAP3K4 (human) (UniProt Q9Y6R4)
[27] = molecular target: PRKG1 (human) (UniProt Q13976)
[28] = molecular target: TXK (human) (UniProt P42681)
[29] = molecular target: ERBB3 (human) (UniProt P21860)
[30] = molecular target: PIK3CG (human) (UniProt P48736)
[31] = molecular target: MAP3K7 (human) (UniProt O43318)
[32] = test system: RET (human), P07949 [V804M]
[33] = molecular target: STK24 (human) (UniProt Q9Y6E0)
[34] = molecular target: ACVRL1 (human) (UniProt P37023)
[35] = molecular target: EPHA2 (human) (UniProt P29317)
[36] = molecular target: RPS6KA4 KD2 (human) (UniProt O75676)
[37] = test system: CPK1 (P.falciparum)
[38] = molecular target: STK4 (human) (UniProt Q13043)
[39] = molecular target: TLK1 (human) (UniProt Q9UKI8)
[40] = molecular target: NEK6 (human) (UniProt Q9HC98)
NEK6 (human), sequence (Q9HC98 whole entry, looked up): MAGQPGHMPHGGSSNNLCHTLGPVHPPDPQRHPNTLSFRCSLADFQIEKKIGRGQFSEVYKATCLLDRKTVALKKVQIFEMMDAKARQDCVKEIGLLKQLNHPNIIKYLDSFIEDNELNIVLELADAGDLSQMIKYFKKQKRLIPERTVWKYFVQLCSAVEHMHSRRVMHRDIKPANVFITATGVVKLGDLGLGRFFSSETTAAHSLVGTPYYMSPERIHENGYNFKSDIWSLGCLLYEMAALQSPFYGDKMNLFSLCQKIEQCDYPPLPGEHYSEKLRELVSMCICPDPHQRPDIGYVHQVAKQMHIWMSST

MAP3K4 (human), sequence (Q9Y6R4 whole entry, looked up): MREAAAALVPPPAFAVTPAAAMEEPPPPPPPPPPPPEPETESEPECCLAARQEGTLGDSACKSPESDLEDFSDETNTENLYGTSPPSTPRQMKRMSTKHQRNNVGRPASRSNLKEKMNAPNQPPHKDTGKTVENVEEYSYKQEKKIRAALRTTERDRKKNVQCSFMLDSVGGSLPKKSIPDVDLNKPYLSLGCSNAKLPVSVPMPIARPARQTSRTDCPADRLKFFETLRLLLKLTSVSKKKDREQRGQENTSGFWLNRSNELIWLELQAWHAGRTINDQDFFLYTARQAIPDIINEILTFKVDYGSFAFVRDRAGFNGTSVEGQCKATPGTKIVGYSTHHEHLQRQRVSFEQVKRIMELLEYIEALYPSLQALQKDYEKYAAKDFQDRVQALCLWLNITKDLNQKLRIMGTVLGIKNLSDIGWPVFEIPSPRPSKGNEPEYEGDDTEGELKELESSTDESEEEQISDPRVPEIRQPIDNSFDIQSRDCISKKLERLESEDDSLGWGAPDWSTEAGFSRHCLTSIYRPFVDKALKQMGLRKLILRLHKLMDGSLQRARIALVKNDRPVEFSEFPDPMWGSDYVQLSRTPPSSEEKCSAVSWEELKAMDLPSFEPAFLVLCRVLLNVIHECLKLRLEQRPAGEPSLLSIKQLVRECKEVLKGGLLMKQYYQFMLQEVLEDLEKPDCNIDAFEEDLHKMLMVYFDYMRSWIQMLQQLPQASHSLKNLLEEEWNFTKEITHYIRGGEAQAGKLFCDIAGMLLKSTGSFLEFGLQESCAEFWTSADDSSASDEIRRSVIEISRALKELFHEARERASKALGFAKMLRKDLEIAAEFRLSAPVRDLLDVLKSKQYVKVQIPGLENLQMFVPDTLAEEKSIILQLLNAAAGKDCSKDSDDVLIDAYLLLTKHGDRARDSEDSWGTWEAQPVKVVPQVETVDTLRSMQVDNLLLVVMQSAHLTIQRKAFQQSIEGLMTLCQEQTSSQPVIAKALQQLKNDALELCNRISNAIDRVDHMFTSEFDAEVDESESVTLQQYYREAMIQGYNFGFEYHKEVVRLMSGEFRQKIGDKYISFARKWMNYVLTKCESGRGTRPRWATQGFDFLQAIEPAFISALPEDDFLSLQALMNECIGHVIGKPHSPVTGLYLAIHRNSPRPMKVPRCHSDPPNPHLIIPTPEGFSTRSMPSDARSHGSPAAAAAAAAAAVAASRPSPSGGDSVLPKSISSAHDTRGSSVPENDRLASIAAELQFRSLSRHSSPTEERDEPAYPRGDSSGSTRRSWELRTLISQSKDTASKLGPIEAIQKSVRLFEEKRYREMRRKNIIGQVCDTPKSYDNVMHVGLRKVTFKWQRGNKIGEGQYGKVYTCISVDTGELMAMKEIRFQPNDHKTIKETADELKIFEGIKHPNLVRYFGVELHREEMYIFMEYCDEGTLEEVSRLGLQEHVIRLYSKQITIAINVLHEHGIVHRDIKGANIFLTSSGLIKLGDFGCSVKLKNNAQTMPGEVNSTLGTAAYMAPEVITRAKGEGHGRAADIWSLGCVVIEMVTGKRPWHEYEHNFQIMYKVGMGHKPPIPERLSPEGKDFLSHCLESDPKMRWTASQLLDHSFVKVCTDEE
MARK2 (human), sequence (Q7KZI7 whole entry, looked up): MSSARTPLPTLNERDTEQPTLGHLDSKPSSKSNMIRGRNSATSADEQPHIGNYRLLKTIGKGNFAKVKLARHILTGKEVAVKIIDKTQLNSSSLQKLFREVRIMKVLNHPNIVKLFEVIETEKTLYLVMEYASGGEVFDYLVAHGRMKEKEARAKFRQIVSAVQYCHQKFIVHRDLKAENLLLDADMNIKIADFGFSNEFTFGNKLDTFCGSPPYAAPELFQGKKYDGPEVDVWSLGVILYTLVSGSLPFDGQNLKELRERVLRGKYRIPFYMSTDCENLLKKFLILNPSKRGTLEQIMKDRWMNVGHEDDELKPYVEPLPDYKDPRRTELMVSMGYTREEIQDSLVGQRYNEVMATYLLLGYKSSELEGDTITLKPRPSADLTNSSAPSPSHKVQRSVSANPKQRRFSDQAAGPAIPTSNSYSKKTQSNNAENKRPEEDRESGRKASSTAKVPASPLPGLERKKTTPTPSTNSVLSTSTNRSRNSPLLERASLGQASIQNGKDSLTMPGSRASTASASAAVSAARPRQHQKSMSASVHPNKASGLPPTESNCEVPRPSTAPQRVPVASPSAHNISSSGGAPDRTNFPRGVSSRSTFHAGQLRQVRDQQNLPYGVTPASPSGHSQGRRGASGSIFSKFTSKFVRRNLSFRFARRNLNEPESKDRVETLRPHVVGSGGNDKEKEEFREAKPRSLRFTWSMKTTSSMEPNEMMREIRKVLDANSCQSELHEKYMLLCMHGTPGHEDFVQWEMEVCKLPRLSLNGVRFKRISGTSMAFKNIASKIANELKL
NUAK1 (human), sequence (O60285 whole entry, looked up): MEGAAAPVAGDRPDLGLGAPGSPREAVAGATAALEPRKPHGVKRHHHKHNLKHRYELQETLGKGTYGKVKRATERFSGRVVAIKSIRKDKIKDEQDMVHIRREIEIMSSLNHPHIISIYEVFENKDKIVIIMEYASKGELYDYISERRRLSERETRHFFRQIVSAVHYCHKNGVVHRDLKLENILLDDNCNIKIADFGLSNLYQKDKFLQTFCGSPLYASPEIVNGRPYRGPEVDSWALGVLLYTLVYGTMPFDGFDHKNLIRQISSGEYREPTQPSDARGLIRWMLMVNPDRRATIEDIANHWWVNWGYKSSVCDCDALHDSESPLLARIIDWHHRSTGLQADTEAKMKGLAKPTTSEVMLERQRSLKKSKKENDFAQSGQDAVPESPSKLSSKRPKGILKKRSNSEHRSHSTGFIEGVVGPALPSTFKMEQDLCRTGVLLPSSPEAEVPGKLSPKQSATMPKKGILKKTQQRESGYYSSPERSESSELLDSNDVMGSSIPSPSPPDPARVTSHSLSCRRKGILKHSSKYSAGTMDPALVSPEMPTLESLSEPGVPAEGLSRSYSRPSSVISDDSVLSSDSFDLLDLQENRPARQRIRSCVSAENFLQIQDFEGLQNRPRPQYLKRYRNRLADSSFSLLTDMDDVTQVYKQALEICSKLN
KIT (human), P10721 [L576P], sequence (P10721 whole entry L576P, looked up): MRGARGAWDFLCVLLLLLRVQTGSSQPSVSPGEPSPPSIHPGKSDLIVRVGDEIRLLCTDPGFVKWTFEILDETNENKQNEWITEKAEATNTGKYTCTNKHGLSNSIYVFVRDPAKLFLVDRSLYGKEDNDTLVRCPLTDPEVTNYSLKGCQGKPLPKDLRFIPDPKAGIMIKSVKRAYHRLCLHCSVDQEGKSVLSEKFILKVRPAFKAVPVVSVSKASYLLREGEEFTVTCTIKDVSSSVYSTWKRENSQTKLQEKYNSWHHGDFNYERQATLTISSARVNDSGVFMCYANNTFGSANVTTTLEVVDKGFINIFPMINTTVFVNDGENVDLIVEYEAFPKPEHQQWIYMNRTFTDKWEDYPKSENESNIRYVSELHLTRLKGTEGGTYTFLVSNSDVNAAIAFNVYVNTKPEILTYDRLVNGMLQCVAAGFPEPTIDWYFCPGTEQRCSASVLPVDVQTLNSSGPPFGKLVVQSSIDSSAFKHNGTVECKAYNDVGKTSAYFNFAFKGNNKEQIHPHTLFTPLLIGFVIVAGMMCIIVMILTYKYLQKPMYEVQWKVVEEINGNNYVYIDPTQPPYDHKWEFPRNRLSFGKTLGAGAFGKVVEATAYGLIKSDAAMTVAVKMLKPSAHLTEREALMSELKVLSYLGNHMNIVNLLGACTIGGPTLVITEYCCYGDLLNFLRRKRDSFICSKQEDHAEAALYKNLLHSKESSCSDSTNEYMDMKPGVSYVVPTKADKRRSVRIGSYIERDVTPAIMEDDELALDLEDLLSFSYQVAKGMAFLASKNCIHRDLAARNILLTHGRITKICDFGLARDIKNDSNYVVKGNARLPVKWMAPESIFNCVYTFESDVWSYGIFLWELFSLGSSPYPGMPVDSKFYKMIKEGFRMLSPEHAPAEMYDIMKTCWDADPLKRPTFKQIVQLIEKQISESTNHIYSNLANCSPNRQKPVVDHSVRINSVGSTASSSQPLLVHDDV
PDPK1 (human), sequence (O15530 whole entry, looked up): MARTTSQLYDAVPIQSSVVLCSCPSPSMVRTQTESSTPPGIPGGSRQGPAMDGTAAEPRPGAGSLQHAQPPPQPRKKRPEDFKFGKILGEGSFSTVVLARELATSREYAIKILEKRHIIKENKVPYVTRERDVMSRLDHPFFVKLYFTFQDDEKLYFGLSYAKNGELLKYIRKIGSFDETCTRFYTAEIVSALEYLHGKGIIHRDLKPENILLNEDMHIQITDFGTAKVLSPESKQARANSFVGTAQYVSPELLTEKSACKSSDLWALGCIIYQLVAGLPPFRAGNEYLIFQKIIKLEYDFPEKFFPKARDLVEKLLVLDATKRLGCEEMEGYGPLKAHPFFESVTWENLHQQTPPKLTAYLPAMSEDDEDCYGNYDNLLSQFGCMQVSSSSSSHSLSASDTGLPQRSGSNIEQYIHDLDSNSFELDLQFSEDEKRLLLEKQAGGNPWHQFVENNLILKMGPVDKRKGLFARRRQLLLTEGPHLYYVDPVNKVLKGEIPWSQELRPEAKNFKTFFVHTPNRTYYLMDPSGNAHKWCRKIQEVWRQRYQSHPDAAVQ

Row | Compound | kinase still bound, per cent of control [1] [%] | kinase still bound, per cent of control [2] [%] | kinase still bound, per cent of control [3] [%] | kinase still bound, per cent of control [4] [%] | kinase still bound, per cent of control [5] [%] | kinase still bound, per cent of control [6] [%] | kinase still bound, per cent of control [7] [%] | kinase still bound, per cent of control [8] [%] | kinase still bound, per cent of control [9] [%] | kinase still bound, per cent of control [10] [%] | kinase still bound, per cent of control [11] [%] | kinase still bound, per cent of control [12] [%] | kinase still bound, per cent of control [13] [%] | kinase still bound, per cent of control [14] [%] | kinase still bound, per cent of control [15] [%] | kinase still bound, per cent of control [16] [%] | kinase still bound, per cent of control [17] [%] | kinase still bound, per cent of control [18] [%] | kinase still bound, per cent of control [19] [%] | kinase still bound, per cent of control [20] [%] | also measured
1 | O=C(Nc1cccc(Nc2ncc(Br)c(NCCc3cnc[nH]3)n2)c1)N1CCCC1 | 35 | 32 | 28 | 0.55 | 0.45 | 0.5 | 0 | 9.1 | 85 | 89 | 69 | 0.2 | 0.25 | 2.4 | 0.95 | 1 | 0 | 1.4 | 0.05 | 0 | kinase still bound, per cent of control [21]: 2%; kinase still bound, per cent of control [22]: 0.25%; kinase still bound, per cent of control [23]: 0.4%; kinase still bound, per cent of control [24]: 28%; kinase still bound, per cent of control [25]: 77%; kinase still bound, per cent of control [26]: 47%; kinase still bound, per cent of control [27]: 72%; kinase still bound, per cent of control [28]: 17%; kinase still bound, per cent of control [29]: 41%; kinase still bound, per cent of control [30]: 58%; kinase still bound, per cent of control [31]: 1.3%; kinase still bound, per cent of control [32]: 0.05%; kinase still bound, per cent of control [33]: 2%; kinase still bound, per cent of control [34]: 100%; kinase still bound, per cent of control [35]: 60%; kinase still bound, per cent of control [36]: 0.95%; kinase still bound, per cent of control [37]: 3.8%; kinase still bound, per cent of control [38]: 12%; kinase still bound, per cent of control [39]: 37%; kinase still bound, per cent of control [40]: 0.5%
2 | C=CC(=O)Nc1cc(-n2c(=O)ccc3cnc4ccc(-c5cn[nH]c5)cc4c32)ccc1C | 87 | 90 | 79 | 3.8 | 100 | 100 | 68 | 59 | 100 | 53 | 42 | 14 | 22 | 100 | 100 | 44 | 11 | 73 | 65 | 5.6 | kinase still bound, per cent of control [21]: 2.7%; kinase still bound, per cent of control [22]: 80%; kinase still bound, per cent of control [23]: 83%; kinase still bound, per cent of control [24]: 100%; kinase still bound, per cent of control [25]: 92%; kinase still bound, per cent of control [26]: 100%; kinase still bound, per cent of control [27]: 91%; kinase still bound, per cent of control [28]: 7%; kinase still bound, per cent of control [29]: 94%; kinase still bound, per cent of control [30]: 4.2%; kinase still bound, per cent of control [31]: 0.35%; kinase still bound, per cent of control [32]: 68%; kinase still bound, per cent of control [33]: 95%; kinase still bound, per cent of control [34]: 42%; kinase still bound, per cent of control [35]: 85%; kinase still bound, per cent of control [36]: 94%; kinase still bound, per cent of control [37]: 11%; kinase still bound, per cent of control [38]: 83%; kinase still bound, per cent of control [39]: 100%; kinase still bound, per cent of control [40]: 92%
3 | COc1ccc(N(C(=O)Oc2c(C)cccc2C)c2ccnc(Nc3ccc(N4CCN(C)CC4)cc3)n2)c(OC)c1 | 100 | 100 | 73 | 100 | 23 | 85 | 1 | 0.05 | 18 | 11 | 92 | 3 | 11 | 82 | 1.6 | 0.45 | 30 | 0 | 16 | 0 | kinase still bound, per cent of control [21]: 100%; kinase still bound, per cent of control [22]: 0.25%; kinase still bound, per cent of control [23]: 87%; kinase still bound, per cent of control [24]: 0%; kinase still bound, per cent of control [25]: 80%; kinase still bound, per cent of control [26]: 23%; kinase still bound, per cent of control [27]: 100%; kinase still bound, per cent of control [28]: 0.45%; kinase still bound, per cent of control [29]: 0%; kinase still bound, per cent of control [30]: 100%; kinase still bound, per cent of control [31]: 57%; kinase still bound, per cent of control [32]: 66%; kinase still bound, per cent of control [33]: 52%; kinase still bound, per cent of control [34]: 2.7%; kinase still bound, per cent of control [35]: 0%; kinase still bound, per cent of control [36]: 100%; kinase still bound, per cent of control [37]: 5%; kinase still bound, per cent of control [38]: 42%; kinase still bound, per cent of control [39]: 45%; kinase still bound, per cent of control [40]: 96%
